Values of other authors as cited in publication PMC5399447, “Neuroprotective pentapeptide CN-105 is associated with reduced sterile inflammation and improved functional outcomes in a traumatic brain injury murine model” (Scientific Reports, 2017).

System: murine model of intracranial hemorrhage
Conditions: cited from earlier work
Source text: The possibility that the apoE mimetic peptide modifies sterile inflammation in the central nervous system is particularly relevant after traumatic brain injury, where glial activation and neuroinflammatory responses exacerbate secondary tissue injury. […] For example, there are a number of limitations inherent to all rodent models of traumatic brain injury. This includes the lissencephalic nature of rodent brains, which precludes testing of higher and more subtle cortical functions that are directly applicable to the clinical setting. Moreoever, rodent brains have reduced ratio of white: grey matter as compared to primates, and thus are not ideal to model the diffuse axonal injury that may occur in the clinical s ...

In the case of Ac-VSRRR-amide [CN-105], the functional outcome (model of intracranial hemorrhage) is given as “improves functional outcome” and the cerebral edema (murine model of intracranial hemorrhage) is given as “reduces cerebral edema”.
